This note sets out measurements from DBAASP.

Some test systems named below: Escherichia coli HB101; Bacillus subtilis; Vibrio parahaemolyticus; Staphylococcus aureus; Escherichia coli; Aeromonas hydrophila; Vibrio harveyi; Escherichia coli UB1005; Bacillus cereus AS1.126; Escherichia coli AS1.349.
Test in all cases: ≥ marks a high value that may be exact or a test limit, other limits are often not marked, values filed in µg/mL are converted to µM
Experiment [1] deals with Leishmania major MHOM/IL/67/JERICHO-II.
In experiment [2] the test system is Staphylococcus aureus Cowan 1.
The test system of experiment [3] is Escherichia coli DH5alpha.
The subject of experiment [4] is Kocuria rhizophila DSM 348.
The test system of experiment [5] is Bacillus subtilis DSM 347.
Experiment [6] deals with Franconibacter helveticus DSM 18396.
In experiment [7] the test system is Bacillus subtilis CMCC 63501.
For experiment [8], the system named is Enterococcus faecalis ATCC 29212.
Experiment [9] has as its system Staphylococcus aureus ATCC 29213.
Experiment [10] deals with Salmonella enterica subsp. enterica serovar Pullorum C79-13.
Experiment [11] has as its system Escherichia coli ATCC 25922.
The subject of experiment [12] is Staphylococcus epidermidis ATCC 12228.
Experiment [13] has as its system Salmonella enterica subsp. enterica serovar Typhimurium ATCC 14028.
In experiment [14] the test system is Klebsiella pneumoniae subsp. pneumoniae CGMCC 1.176.
For experiment [15], the system named is Lactococcus lactis AS1.1690.
Experiment [16] concerns Acinetobacter baumannii CICC 22934.
In experiment [17] the test system is Enterococcus faecalis CGMCC 1.595.
For experiment [18], the system named is Klebsiella aerogenes CGMCC 1.876.
Experiment [19] has as its system Enterobacter cloacae CGMCC 1.58.
The subject of experiment [20] is Staphylococcus epidermidis CICC 23664.
Experiment [21] has as its system Pseudomonas aeruginosa CGMCC 1.860.
In experiment [22] the test system is Enterococcus faecium CGMCC 1.2334.
Experiment [23] deals with Staphylococcus aureus AS1.72.

In brackets after ≈: the same amount, converted by molar mass.

By MIC is commonly meant the lowest concentration that inhibits growth of the organism. A higher MIC goes with a need for much substance. As for `CC[C@H](C)[C@H](NC(=O)[C@@H](NC(=O)[C@H](CC(=O)O)NC(=O)[C@H](C)NC(=O)[C@H](C)NC(=O)[C@H](C)NC(=O)CNC(=O)[C@H](CC(C)C)NC(=O)[C@H](C)NC(=O)[C@H](C)NC(=O)[C@H](CCCCN)NC(=O)CNC(=O)[C@H](C)NC(=O)[C@H](Cc1cnc[nH]1)NC(=O)[C@H](CC(C)C)NC(=O)[C@H](C)NC(=O)[C@H](CCSC)NC(=O)[C@@H](NC(=O)CNC(=O)[C@H](CC(C)C)NC(=O)[C@H](CCCCN)NC(=O)[C@H](CCCCN)NC(=O)[C@H](CC(C)C)NC(=O)[C@H](CCSC)NC(=O)[C@@H](NC(=O)[C@H](CCCCN)NC(=O)[C@H](Cc1c[nH]c2ccccc12)NC(=O)[C@H](CC(C)C)NC(=O)[C@H](C)N)[C@@H](C)O)[C@@H](C)O)[C@@H](C)O)C(N)=O` [ALWKTMLKKLGTMALHAGKAALGAAADTI], the MIC with Escherichia coli HB101 was determined as 2.7 µM (≈ 7.97 µg/mL); in experiment [1], 6.1 µM (≈ 18 µg/mL); in experiment [2] it was 2.7 µM (≈ 7.97 µg/mL).
Regarding `CC[C@H](C)[C@H](NC(=O)CN)C(=O)NCC(=O)N[C@@H](CCCCN)C(=O)N[C@@H](Cc1ccccc1)C(=O)N[C@@H](CC(C)C)C(=O)N[C@@H](Cc1cnc[nH]1)C(=O)N[C@@H](CO)C(=O)N[C@@H](C)C(=O)N[C@@H](CCCCN)C(=O)N[C@@H](CCCCN)C(=O)N[C@@H](C)C(=O)NCC(=O)N[C@@H](CCCCN)C(=O)N[C@@H](C)C(=O)N[C@@H](Cc1ccccc1)C(=O)N[C@H](C(=O)NCC(=O)N[C@@H](CCC(=O)O)C(=O)N[C@H](C(=O)N[C@@H](CCSC)C(=O)N[C@@H](CC(N)=O)C(=O)N[C@@H](CO)C(=O)O)[C@@H](C)CC)C(C)C` [GIGKFLHSAKKAGKAFVGEIMNS], the MIC in experiment [3] was not below 64 µM; in experiment [4] it was not below 64 µM; in experiment [5] it was 8 µM (≈ 19.1 µg/mL); in experiment [6], not below 64 µM.
Consider `CC[C@H](C)[C@H](NC(=O)CN)C(=O)NCC(=O)N[C@@H](CCCCN)C(=O)N[C@@H](Cc1ccccc1)C(=O)N[C@@H](CC(C)C)C(=O)N[C@@H](Cc1cnc[nH]1)C(=O)N[C@@H](CO)C(=O)N[C@@H](C)C(=O)N[C@@H](CCCCN)C(=O)N[C@@H](CCCCN)C(=O)N[C@@H](Cc1ccccc1)C(=O)NCC(=O)N[C@@H](CCCCN)C(=O)N[C@@H](C)C(=O)N[C@@H](Cc1ccccc1)C(=O)N[C@H](C(=O)N[C@@H](C)C(=O)N[C@@H](CCC(=O)O)C(=O)N[C@H](C(=O)N[C@@H](CCSC)C(=O)N[C@@H](CC(N)=O)C(=O)N[C@@H](CO)C(=O)O)[C@@H](C)CC)C(C)C` [GIGKFLHSAKKFGKAFVAEIMNS], for which the MIC in [3] was 16 µM (≈ 39.7 µg/mL); in experiment [4], 8 µM (≈ 19.8 µg/mL); in [5] it was 1 µM (≈ 2.48 µg/mL); in experiment [6] it was 8 µM (≈ 19.8 µg/mL).
Consider `CC[C@H](C)[C@H](NC(=O)[C@H](CC(C)C)NC(=O)[C@H](CCC(=O)O)NC(=O)CNC(=O)[C@H](CC(C)C)NC(=O)[C@H](Cc1cnc[nH]1)NC(=O)CNC(=O)[C@H](CCCCN)NC(=O)[C@@H](NC(=O)[C@H](Cc1ccccc1)NC(=O)[C@H](CCCCN)NC(=O)[C@H](CCCCN)NC(=O)[C@H](CS)NC(=O)[C@H](CC(C)C)NC(=O)[C@H](CO)NC(=O)[C@H](CCCCN)NC(=O)[C@H](CC(C)C)NC(=O)[C@H](CC(C)C)NC(=O)CN)C(C)C)C(=O)N[C@@H](CCC(=O)O)C(=O)N[C@@H](CCC(=O)O)C(=O)N[C@@H](CC(C)C)C(=O)N[C@H](C(=O)N[C@H](C(=O)N[C@@H](CO)C(=O)N[C@@H](CC(=O)O)C(=O)N[C@@H](CC(=O)O)C(=O)O)[C@@H](C)O)[C@@H](C)O` [GLLKSLCKKFVKGHLGELIEELTTSDD], for which the MIC against Bacillus subtilis is not below 33.9 µM; against Vibrio parahaemolyticus, not below 96 µM; against Staphylococcus aureus it was 17 µM (≈ 50.5 µg/mL); against Escherichia coli, 17 µM (≈ 50.5 µg/mL); with Aeromonas hydrophila, not below 96 µM; in the experiment on Vibrio harveyi, 17 µM (≈ 50.5 µg/mL).
On to `CC[C@H](C)[C@H](NC(=O)[C@H](C)NC(=O)[C@H](CC(C)C)NC(=O)[C@@H]1CCCN1C(=O)[C@@H](NC(=O)[C@H](CC(C)C)NC(=O)[C@H](CCC(N)=O)NC(=O)[C@H](Cc1c[nH]c2ccccc12)NC(=O)[C@H](Cc1ccccc1)NC(=O)[C@H](CCCN=C(N)N)NC(=O)[C@@H](N)CCCCN)C(C)C)C(=O)N[C@@H](CCCCN)C(=O)N[C@H](C(=O)N[C@@H](Cc1ccc(O)cc1)C(=O)N[C@@H](CCCN=C(N)N)C(=O)N[C@@H](C)C(=O)N[C@@H](Cc1c[nH]c2ccccc12)C(=O)N[C@@H](CCCCN)C(=O)N[C@@H](CCCN=C(N)N)C(=O)N[C@@H](CCCN=C(N)N)C(=O)O)[C@@H](C)CC` [KRFWQLVPLAIKIYRAWKRR], for which the MIC stood at 2 µM (≈ 5.26 µg/mL) in the experiment on Escherichia coli UB1005; 8 µM (≈ 21 µg/mL) in [7]; 4 µM (≈ 10.5 µg/mL) in [8]; 4 µM (≈ 10.5 µg/mL) in [9]; 8 µM (≈ 21 µg/mL) in experiment [10]; 2 µM (≈ 5.26 µg/mL) in [11]. In addition, the MIC in experiment [12] and in [13] was 4 µM (≈ 10.5 µg/mL) throughout.
As to `CC(C)[C@H](NC(=O)[C@H](CCCCN)NC(=O)[C@@H](N)CO)C(=O)N[C@@H](Cc1c[nH]c2ccccc12)C(=O)N[C@@H](CCCN=C(N)N)C(=O)N[C@@H](Cc1cnc[nH]1)C(=O)N[C@@H](Cc1c[nH]c2ccccc12)C(=O)N[C@@H](CCCN=C(N)N)C(=O)N[C@@H](CCCN=C(N)N)C(=O)N[C@@H](Cc1ccccc1)C(=O)N[C@@H](Cc1c[nH]c2ccccc12)C(=O)N[C@@H](Cc1cnc[nH]1)C(=O)N[C@@H](CCCN=C(N)N)C(=O)N[C@@H](C)C(=O)N[C@@H](Cc1cnc[nH]1)C(=O)N[C@@H](CCCN=C(N)N)C(=O)N[C@@H](CCCCN)C(=O)N[C@@H](CCCCN)C(=O)O` [SKVWRHWRRFWHRAHRKK], the MIC in the experiment on Bacillus cereus AS1.126 is 3.91 µM (≈ 10 µg/mL); in [14], not below 100 µM; in experiment [15], 1.98 µM (≈ 5.06 µg/mL); in [16], 7.81 µM (≈ 20 µg/mL); in experiment [17] it was 1.81 µM (≈ 4.63 µg/mL); in experiment [18], not below 100 µM. Moreover, the MIC in experiment [19] is not below 100 µM; against Escherichia coli AS1.349, 6.25 µM (≈ 16 µg/mL); in [20] it was 7 µM (≈ 17.9 µg/mL); in [21] it was 1.59 µM (≈ 4.07 µg/mL); in experiment [22], 2.9 µM (≈ 7.42 µg/mL); in [23], 3.86 µM (≈ 9.87 µg/mL).
As to `CC[C@H](C)[C@H](NC(=O)[C@H](CCC(=O)O)NC(=O)[C@H](CC(N)=O)NC(=O)[C@H](CS)NC(=O)[C@@H](N)C(C)C)C(=O)NCC(=O)N[C@@H](CC(C)C)C(=O)N[C@@H](CC(C)C)C(=O)N[C@@H](CCCCN)C(=O)N[C@@H](CO)C(=O)N[C@@H](CC(C)C)C(=O)N[C@@H](CS)C(=O)N[C@@H](CCCCN)C(=O)N[C@@H](CCCCN)C(=O)N[C@@H](Cc1ccccc1)C(=O)N[C@H](C(=O)N[C@@H](CCCCN)C(=O)NCC(=O)N[C@@H](Cc1cnc[nH]1)C(=O)N[C@@H](CC(C)C)C(=O)NCC(=O)N[C@@H](CCC(=O)O)C(=O)O)C(C)C` [VCNEIGLLKSLCKKFVKGHLGE], the minimal inhibitory concentration (MIC) against Bacillus subtilis is not below 96 µM; with Vibrio parahaemolyticus, not below 96 µM; against Staphylococcus aureus it was 17 µM (≈ 41 µg/mL); in the experiment on Escherichia coli it was 33.9 µM (≈ 82 µg/mL); against Aeromonas hydrophila it was not below 96 µM; with Vibrio harveyi, not below 96 µM.
